Experimental data reported in BindingDB's records for patent US12492186 (Bristol Myers Squibb, 2025).

Target: T1, Interleukin-1 receptor-associated kinase 4 (Homo sapiens, UniProt Q9NWZ3)
T1 sequence (Q9NWZ3 whole entry): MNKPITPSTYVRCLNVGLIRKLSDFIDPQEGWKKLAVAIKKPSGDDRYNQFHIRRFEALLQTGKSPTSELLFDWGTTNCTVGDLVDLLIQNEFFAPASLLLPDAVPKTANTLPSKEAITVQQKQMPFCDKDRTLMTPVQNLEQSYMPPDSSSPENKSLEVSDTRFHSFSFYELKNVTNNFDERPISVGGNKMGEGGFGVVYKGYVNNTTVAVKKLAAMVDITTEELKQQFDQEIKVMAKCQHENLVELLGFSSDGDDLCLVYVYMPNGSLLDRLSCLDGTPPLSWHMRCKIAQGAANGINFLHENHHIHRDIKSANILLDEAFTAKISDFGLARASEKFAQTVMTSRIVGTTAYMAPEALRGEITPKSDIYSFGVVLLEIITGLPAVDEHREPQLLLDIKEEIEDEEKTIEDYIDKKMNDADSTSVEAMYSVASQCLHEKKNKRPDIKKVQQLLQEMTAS
Experiment: IRAK4 Inhibition Assay
Protocol: The assays were performed in U-bottom 384-well plates. The final assay volume was 30 μL prepared from 15 μL additions of enzyme and substrates (fluoresceinated peptide and ATP) and test compounds in assay buffer (20 mM HEPES pH 7.2, 10 mM MgCl2, 0.015% Brij 35 and 4 mM DTT). The reaction was initiated by the combination of IRAK4 with substrates and test compounds. The reaction mixture was incubated at room temperature for 60 min. and terminated by adding 45 μL of 35 mM EDTA to each sample. The reaction mixture was analyzed on the Caliper LABCHIP 3000 (Caliper, Hopkinton, MA) by electrophoretic separation of the fluorescent substrate and phosphorylated product. Inhibition data were calculated by comparison to no enzyme control reactions for 100% inhibition and vehicle-only reactions for 0% inhibition. The final concentrations of reagents in the assays are ATP, 500 μM; FL-IPTSPITTTYFFFKKK peptide 1.5 μM; IRAK4, 0.6 nM; and DMSO, 1.6%.

Structure (SMILES)	IC50 [nM]
CC(O)CCNC(=O)c1cnc2ccc(-c3cn[nH]c3)cc2c1NC1CC(F)(F)C1 (stereo not drawn) [US12492186, Example 54]	17.6
CC(O)CCNC(=O)c1cnc2ccc(-c3cn[nH]c3)cc2c1NCC(F)F (stereo not drawn) [US12492186, Example 65]	15.2
CC(C)Nc1c(-c2cc(C3CCCCN3)no2)cnc2ccc(-c3cn[nH]c3)cc12 (stereo not drawn) [US12492186, Example 128]	4.8
